Assay results from patent US7741348B2, “Bisheterocycle tandem compounds useful as antiviral agents, the uses thereof and the compositions comprising such compounds” (Shanghai Institute of Materia Medica, Chinese Academy of …, priority 2005, dated 2010).
Values after ≈ are worked out from the molar mass of the structure shown.

Columns and labels:
Format in all cases: cell-based
[1] = test system: MDCK (canine kidney) cells; test: 50% toxicity concentration in the anti-influenza screen (MDCK cells); settings: 50% toxity concentration, Table 3-2 (influenza screen, MDCK cells)
Text: (§1) 4. Screening of the samples for the anti-influenza virus A and B activity: MDCK (canine kidney) cells were used as the virus host to test the inhibition effect of the compounds of the present invention on the cytopathic effect (CPE) of the cells caused by the virus.

influenza A virus = test: Anti influenza A virus activity, cytopathic effect (CPE) in MDCK cells
Text: as §1

hepatitis B virus (HBV) [2] = test: HBV-DNA replication in HepG2.2.15 culture supernatant (fluorescent quantification PCR); settings: for IC50: Hepatitis B virus
Text: (§2) Hepatitis B virus (HBV) transgenic human hepatoma carcinoma cell, HepG2.2.15 cell line, can secrete hepatitis B virus particles (containing antigen and DNA) into supernatant when being cultured.
(§3) Under action of antiviral drugs, the contents of HBsAg, HBeAg and viral DNA secreted from cells into the supernatant were detected and are compared with the contents of control groups without drugs, so that the antiviral activity of the compounds of the present invention can be measured as well as the cytotoxic effect of compounds of the present invention. The value concentration of the compounds of the present invention which caused 50% of cells dead and was measured with MTT method was CC50; and the value concentration of the compounds of the present invention which inhibited the secretion of HBsAg and HBeAg detected by ELISA method and inhibited 50% of viral DNA replication detected by fluorescent quantification PCR method was IC50.
(§4) HepG2.2.15 cells were inoculated on a 96-well plate, and the compounds of the present invention were added next day. The medium and the compound solutions of the same concentration were renewed periodically. The culture supernatants were collected on the eighth day to be detected. MTT was added to the cells on the 96-well plate, and MTT dissolving liquid was added after 4 hours to be reacted overnight. OD570 was measured next day on microplate reader. And the cytotoxicity of the compounds of the present invention to the HepG2.2.15 cells, the effect of the compounds of the present invention on the growth of the cells, and the concentration of the compound of the present invention (CC50) causing 50% of the cells dead were estimated according to the OD values.
A suitable amount of culture supernatant was added into a same volume of virus extract solution, and was boiled after mixed uniformly, then centrifuged at 10000 rpm for 5 min under room temperature. A suitable amount of supernatant was collected for PCR amplification. Five HBV-DNA standard samples were used to set a standard curve. According to the obtained viral DNA replication value, the inhibition rates of HBV-DNA replication of the compound of the present invention at different concentrations were calculated, and then the half inhibition rates of the compounds were calculated to obtain IC50. For the samples that can not be calculated for IC50 value, they can be represented by ICX and given the corresponding concentration values.

[3] = Cytotoxicity to HepG2.2.15 cells (MTT method); settings: human, HepG2.2.15 cells (HBV-transgenic human hepatoma cells), 50% death concentration, eighth day
Text: as §2, §3, §4

hepatitis B virus (HBV) [4] = test: HBeAg secretion in HepG2.2.15 culture supernatant (ELISA); settings: HepG2.2.15 supernatant, eighth day, read-out: HBeAg secreation IC50
Text: as §2, §3, §4
(§5) HBsAg and HBeAg were detected with assaying kits (purchased from Sino-American biotechnological company). Samples were added to the coated strip plate, and the same amount of enzyme labeled conjugate was added, after reacting under 37° C. for 1 hour, the plate was washed 5 times. Colorant solutions A and B were added, and the reaction was stopped after 15 minutes, and OD450/630 was measured. The half inhibition rate IC50 of the sample for the HBV antigen was calculated according to the OD values.

hepatitis B virus (HBV) [5] = test: HBsAg secretion in HepG2.2.15 culture supernatant (ELISA); settings: HepG2.2.15 supernatant, eighth day, read-out: HBsAg secreation IC50
Text: as §2, §3, §4, §5

[6] = HepG2.2.15 supernatant, eighth day, fluorescent quantification PCR, read-out: DNA replication IC50
[7] = HepG2.2.15, read-out: DNA replication IC50

SMILES | TC50 [1] | IC50 (influenza A virus) | CC50 [3] | other results
COC(=O)c1coc([C@H](C)NC(=O)c2nc(-c3csc([C@@H](NC(=O)Cc4ccccc4)C(C)C)n3)oc2C)n1 [Wang 551.62] | 303.69 µg/mL (≈ 551 µM) | 1.18 µg/mL (≈ 2.14 µM) | – | –
CCCCc1oc(-c2nccs2)nc1C(=O)OCC [Compound C280-2] | – | – | > 100 µM | DNA replication IC26 (hepatitis B virus (HBV) [2]; ICX: concentration with 26% inhibition of HBV-DNA replication, IC50 not calculable): IC26 = 0.41 uM
C=CCCC(=O)N[C@H](c1nc(-c2nc(C(=O)OC)c(C)o2)cs1)C(C)C [Wang 377.46-2] | 577.35 µg/mL (≈ 1530 µM) | 259 µg/mL (≈ 685 µM) | – | –
COC(=O)c1nc(-c2ncco2)sc1-c1ccc(F)cc1Cl [Wang338] | – | – | 200 µM | IC50 (hepatitis B virus (HBV) [2]; [6]): 6.1 µM; IC50 (hepatitis B virus (HBV) [4]): 22.3 µM; IC50 (hepatitis B virus (HBV) [5]): 77.6 µM
CCOC(=O)c1nc(-c2cccs2)sc1C1CCCCC1 [Compound C321-2] | – | – | 28.2 µM | IC50 (hepatitis B virus (HBV) [2]; [7]): 1.67 µM
CC(C)Cc1sc(-c2nccs2)nc1C(=O)O [Wang268-1] | – | – | 437 µM | IC50 (hepatitis B virus (HBV) [2]; [6]): 153 µM; IC50 (hepatitis B virus (HBV) [4]): 101 µM; IC50 (hepatitis B virus (HBV) [5]): 90 µM
CCOC(=O)c1nc(-c2ccc(CC)s2)oc1CC(C)C [Compound C307] | – | – | 80 µM | IC50 (hepatitis B virus (HBV) [2]; [6]): 22.5 µM
CCOC(=O)c1nc(-c2cc3ccccc3s2)sc1CC(C)C [Compound C345] | – | – | > 88.1 µM | IC50 (hepatitis B virus (HBV) [2]; [7]): 1.32 µM
NC(=O)c1ncn([C@@H]2O[C@H](CO)[C@@H](O)[C@H]2O)n1 [Ribavirin, reference compound] | – | 3.73 µg/mL (≈ 15.3 µM) | – | –
COC(=O)c1coc([C@H](C)NC(=O)c2nc(-c3csc([C@@H](NC(=O)CC4=CCCCC4)C(C)C)n3)oc2C)n1 [Wang 555.65] | 577.35 µg/mL (≈ 1040 µM) | 44.5 µg/mL (≈ 80 µM) | – | –
CC(C)Cc1sc(-c2nccs2)nc1C(=O)NCc1ccccc1 [Compound C357] | – | – | 80 µM | DNA replication IC89 (hepatitis B virus (HBV) [2]; ICX: concentration with 89% inhibition of HBV-DNA replication, IC50 not calculable): IC89 = 33 uM
COC(=O)c1nc(-c2csc([C@@H](NC(=O)C3CCCC3)C(C)C)n2)oc1C [Wang391.49-1] | 250 µg/mL (≈ 639 µM) | 0.56 µg/mL (≈ 1.43 µM) | – | –
CC(C)Cc1cnc(-c2nccs2)o1 [Compound C208] | – | – | > 100 µM | IC50 (hepatitis B virus (HBV) [2]; [6]): 35.8 µM
COC(=O)c1coc([C@H](C)NC(=O)c2nc(-c3csc([C@@H](NC(=O)c4ccccc4)C(C)C)n3)oc2C)n1 [Wang 537.59] | >1000 µg/mL | 1.29 µg/mL (≈ 2.4 µM) | – | –
CCOC(=O)c1nc(-c2cccs2)[nH]c1-c1ccccc1 [Wang298] | – | – | 569 µM | IC50 (hepatitis B virus (HBV) [4]): 209 µM; IC50 (hepatitis B virus (HBV) [5]): 144 µM
CCCCc1sc(-c2nccs2)nc1C(=O)O [Wang268] | – | – | – | DNA replication IC53 (hepatitis B virus (HBV) [2]; ICX: concentration with 53% inhibition of HBV-DNA replication, IC50 not calculable): IC53 = 125 uM; IC50 (hepatitis B virus (HBV) [4]): 128 µM; IC50 (hepatitis B virus (HBV) [5]): 37.2 µM
CCCc1[nH]c(-c2cccs2)nc1C(=O)OCC [Wang264] | – | – | 124 µM | IC50 (hepatitis B virus (HBV) [4]): 95.5 µM; IC50 (hepatitis B virus (HBV) [5]): 41.3 µM
COC(=O)c1nc(-c2csc([C@@H](NC(=O)CC3=CCCC3)C(C)C)n2)oc1C [Wang 403.50] | 333.33 µg/mL (≈ 826 µM) | 64.2 µg/mL (≈ 159 µM) | – | –
C=CCC(=O)N[C@H](c1nc(-c2nc(C(=O)OC)c(C)o2)cs1)C(C)C [Wang 363.43-2] | 500 µg/mL (≈ 1380 µM) | 0.42 µg/mL (≈ 1.16 µM) | – | –
COC(=O)c1coc([C@H](C)NC(=O)c2nc(-c3csc([C@@H](NC(=O)C4CCCCC4)C(C)C)n3)oc2C)n1 [Wang 543.64-1] | 144.34 µg/mL (≈ 266 µM) | 57.8 µg/mL (≈ 106 µM) | – | –
CCOC(=O)c1nc(-c2cscn2)sc1CC(C)C [Compound C296-3] | – | – | 116 µM | IC50 (hepatitis B virus (HBV) [2]; [6]): 0.14 µM
CCCCc1[nH]c(-c2nccs2)nc1C(=O)OCC [Compound C279-1] | – | – | 94.7 µM | DNA replication IC40 (hepatitis B virus (HBV) [2]; ICX: concentration with 40% inhibition of HBV-DNA replication, IC50 not calculable): IC40 = 12.4 uM
COC(=O)c1nc(-c2csc([C@@H](NC(=O)CC=C(C)C)C(C)C)n2)oc1C [Wang391.49-2] | >1000 µg/mL | > 192 µg/mL | – | –
